Test results taken from patent US4791139A, “Diphenyl ether derivatives and their use as insecticides” (Imperial Chemical Industries PLC, priority 1986, dated 1988).

How the values were obtained:
Type in all cases: in vivo
Myzus persicae (aphids) = test: Contact test, aphids (MP), Chinese Cabbage leaf; conditions: 72 h, 3 days, read-out: MP grading of mortality
Description: The activity of the Product was determined using a variety of insect pests. The Product was used in the form of liquid preparations containing from 100 to 500 parts per million (ppm) by weight of the Product. The preparations were made by dissolving the Product in acetone and diluting the solutions with water containing 0.1% by weight of a wetting agent sold under the trade name "SYNPERONIC" NX until the liquid preparations contained the required concentration of the Product. "SYNPERONIC" is a Registered Trade Mark. The test procedure adopted with regard to each pest was basically the same and comprised supporting a number of the pests on a medium which was usually a host plant or a foodstuff on which the pests feed, and treating either or both the pests and the medium with the preparations. The mortality of the pests was then assessed at periods usually varying from one to seven days after the treatment. […] In Table III the pest organism used is designated by a letter code and the pests species, the support medium or food, and the type and duration of test is given in Table II.

[1] = system: Tetranychus urticae (spider mites - ova); test: Contact test, spider mites - ova (TUe), French bean leaf; conditions: 144 h, 6 days, read-out: TUE grading of mortality
Description: (§1) The activity of the Product was determined using a variety of insect pests. The Product was used in the form of liquid preparations containing from 100 to 500 parts per million (ppm) by weight of the Product. The preparations were made by dissolving the Product in acetone and diluting the solutions with water containing 0.1% by weight of a wetting agent sold under the trade name "SYNPERONIC" NX until the liquid preparations contained the required concentration of the Product. "SYNPERONIC" is a Registered Trade Mark. The test procedure adopted with regard to each pest was basically the same and comprised supporting a number of the pests on a medium which was usually a host plant or a foodstuff on which the pests feed, and treating either or both the pests and the medium with the preparations. The mortality of the pests was then assessed at periods usually varying from one to seven days after the treatment.

[2] = system: Tetranychus urticae (spider mites - adult); test: Contact test, spider mites - adult (TUa), French bean leaf; conditions: 72 h, 3 days, read-out: TUA grading of mortality
Description: as §1

[3] = system: Musca domestica (houseflies - adults); test: Knockdown test, houseflies - adults (MD/KD), Cotton wool/sugar; conditions: 4 hours, read-out: MD/KD grading of knockdown
Description: (§2) The activity of the Product was determined using a variety of insect pests. The Product was used in the form of liquid preparations containing from 100 to 500 parts per million (ppm) by weight of the Product. The preparations were made by dissolving the Product in acetone and diluting the solutions with water containing 0.1% by weight of a wetting agent sold under the trade name "SYNPERONIC" NX until the liquid preparations contained the required concentration of the Product. "SYNPERONIC" is a Registered Trade Mark.
(§3) The test procedure adopted with regard to each pest was basically the same and comprised supporting a number of the pests on a medium which was usually a host plant or a foodstuff on which the pests feed, and treating either or both the pests and the medium with the preparations. The mortality of the pests was then assessed at periods usually varying from one to seven days after the treatment.
In the case of the species Musca domestica (housefly), an additional assessment to determine the knockdown effect of the compounds was performed.
(§4) In Table III the pest organism used is designated by a letter code and the pests species, the support medium or food, and the type and duration of test is given in Table II.

[4] = system: Diabrotica balteata (rootworm larvae); test: Residual test, rootworm larvae (DB), Filter paper/maize seed; conditions: 72 h, 3 days, read-out: DB grading of mortality
Description: as §1

[5] = system: Heliothis virescens (tobacco budworm - larvae); test: Residual test, tobacco budworm - larvae (HV), Cotton leaf; conditions: 72 h, read-out: HV grading of mortality
Description: as §2, §3
(§5) The results of the tests are given in Table III for each of the Products, at the rate in parts per million given in the second column as a grading of mortality designated as A, B or C wherein A indicates 80-100% mortality or knockdown (70-100% for Meloidogyne incognita), B indicates 50-79% mortality knockdown or knockdown (50-69% for Meloidogyne incognita) and C indicates less than 50% mortality or knockdown.
as §4
(tobacco budworm - larvae)

[6] = system: Spodoptera exigua (lesser army worm - larvae); test: Residual test, lesser army worm - larvae (SP), Cotton leaf; conditions: 72 h, 3 days, read-out: SP grading of mortality
Description: as §2, §3, §5, §4
(lesser army worm - larvae)

[7] = system: Nilaparvata lugens (brown plant hopper - nymphs); test: Contact test, brown plant hopper - nymphs (NL), Rice plant; conditions: 72 h, 3 days, read-out: NL grading of mortality
Description: as §1

[8] = system: Blattella germanica (cockroach nymphs); test: Residual test, cockroach nymphs (BG), Plastic pot; conditions: 72 h, 3 days, read-out: BG grading of mortality
Description: as §1

[9] = system: Musca domestica (houseflies - adults); test: Contact test, houseflies - adults (MD), Cotton wool/sugar; conditions: 24 h, 1 day, read-out: MD grading of mortality
Description: as §1

[10] = system: Meloidogyne incognita (Tomato root knot eelworm - larvae); test: Residual test, Tomato root knot eelworm - larvae (MI), Semi in-vitro; conditions: 168 h, application rate is half that recorded, 7 days, read-out: MI grading of mortality; for mortality at 250 µg/mL: rate column 500 ppm

CCOc1ccc(C(CCCc2c(F)c(F)c(F)c(F)c2F)C(F)(F)F)cc1 (racemic) [Compound 43, 1,1,1-Trifluoro-2-(4-ethoxyphenyl)-5-(pentafluorophenyl)pentane]
mortality at 500 ppm (Myzus persicae (aphids)): < 50%
mortality at 500 ppm [1]: < 50%
mortality at 500 ppm [2]: < 50%
pest or weed control at 500 ppm [3]: 50 to 79%
mortality at 500 ppm [4]: 80 to 100%
mortality at 500 ppm [5]: < 50%
mortality at 500 ppm [6]: 80 to 100%
mortality at 500 ppm [7]: < 50%
mortality at 500 ppm [8]: 50 to 79%
mortality at 500 ppm [9]: 50 to 79%
mortality at 250 µg/mL [10]: < 50%

Fc1ccc(C=CC=C(c2ccc(OC(F)(F)F)cc2)C(F)F)cc1Oc1ccccc1 [Compound 77, 1,1-difluoro-2-(4-trifluoromethoxyphenyl)-5-(4-fluoro-3-phenoxyphenyl)penta-2,4-diene]
mortality at 500 ppm (Myzus persicae (aphids)): 80 to 100%
mortality at 500 ppm [1]: < 50%
mortality at 500 ppm [2]: < 50%
pest or weed control at 500 ppm [3]: < 50%
mortality at 500 ppm [4]: 80 to 100%
mortality at 500 ppm [5]: 80 to 100%
mortality at 500 ppm [6]: 80 to 100%
mortality at 500 ppm [7]: 80 to 100%
mortality at 500 ppm [8]: < 50%
mortality at 500 ppm [9]: < 50%
mortality at 250 µg/mL [10]: 50 to 69%

Fc1ccc(C(=CCCc2cccc(Oc3ccccc3)c2)C(F)(F)F)cc1 [Compound 47, 1,1,1-Trifluoro-2-(4-fluorophenyl)-5-(3-phenoxyphenyl)pent-2-ene]
mortality at 250 ppm (Myzus persicae (aphids); 250 ppm): < 50%
mortality at 250 ppm ([1]; 250 ppm): < 50%
mortality at 250 ppm ([2]; 250 ppm): < 50%
pest or weed control at 250 ppm ([3]; 250 ppm): < 50%
mortality at 250 ppm ([4]; 250 ppm): 50 to 79%
mortality at 250 ppm [5]: < 50%
mortality at 250 ppm ([6]; 250 ppm): 50 to 79%
mortality at 250 ppm ([7]; 250 ppm): < 50%
mortality at 250 ppm ([8]; 250 ppm): 50 to 79%
mortality at 250 ppm ([9]; 250 ppm): < 50%
mortality at 125 µg/mL ([10]; rate 250 ppm): 50 to 69%

CCOc1ccc(C(CCC(C#N)c2cccc(Oc3ccccc3)c2)C(F)(F)F)cc1 (racemic) [Compound 54, 1,1,1-Trifluoro-2-(4-ethoxyphenyl)-5-cyano-5-(3-phenoxyphenyl)pentane]
mortality at 500 ppm (Myzus persicae (aphids)): 80 to 100%
mortality at 500 ppm [1]: < 50%
mortality at 500 ppm [2]: < 50%
pest or weed control at 500 ppm [3]: 80 to 100%
mortality at 500 ppm [4]: < 50%
mortality at 500 ppm [5]: 80 to 100%
mortality at 500 ppm [6]: 80 to 100%
mortality at 500 ppm [7]: 80 to 100%
mortality at 500 ppm [8]: < 50%
mortality at 500 ppm [9]: 80 to 100%
mortality at 250 µg/mL [10]: < 50%

FC(F)(F)C(=CCCc1cccc(Oc2ccccc2)c1)c1ccc2c(c1)OCO2 [Compound 41, 1,1,1-Trifluoro-2-(3,4-methylenedioxyphenyl)-5-(3-phenoxyphenyl)pent-2-ene]
mortality at 500 ppm (Myzus persicae (aphids)): < 50%
mortality at 500 ppm [1]: < 50%
mortality at 500 ppm [2]: < 50%
pest or weed control at 500 ppm [3]: 80 to 100%
mortality at 500 ppm [4]: 80 to 100%
mortality at 500 ppm [5]: 50 to 79%
mortality at 500 ppm [6]: 50 to 79%
mortality at 500 ppm [7]: < 50%
mortality at 500 ppm [8]: < 50%
mortality at 500 ppm [9]: 80 to 100%

CCOc1ccc(C(CCCc2ccc(F)c(Cc3ccccc3)c2)C(F)(F)F)cc1 (racemic) [Compound 106, 1,1,1-Trifluoro-2-(4-ethoxyphenyl)-5-(3-benzyl-4-fluorophenyl)pentane]
mortality at 500 ppm (Myzus persicae (aphids)): 80 to 100%
mortality at 500 ppm [1]: 80 to 100%
mortality at 500 ppm [2]: 80 to 100%
pest or weed control at 500 ppm [3]: 80 to 100%
mortality at 500 ppm [4]: 80 to 100%
mortality at 500 ppm [5]: 80 to 100%
mortality at 500 ppm [6]: 80 to 100%
mortality at 500 ppm [7]: 80 to 100%
mortality at 500 ppm [8]: 80 to 100%
mortality at 500 ppm [9]: 80 to 100%

Fc1ccc(CCCC(c2ccc(OC(F)(F)F)cc2)C(F)(F)F)cc1Cc1ccccc1 (stereo not shown) [Compound 108]
mortality at 500 ppm (Myzus persicae (aphids)): 80 to 100%
mortality at 500 ppm [1]: 80 to 100%
mortality at 500 ppm [2]: 80 to 100%
pest or weed control at 500 ppm [3]: 80 to 100%
mortality at 500 ppm [4]: < 50%
mortality at 500 ppm [5]: 80 to 100%
mortality at 500 ppm [6]: 80 to 100%
mortality at 500 ppm [7]: 80 to 100%
mortality at 500 ppm [8]: 80 to 100%
mortality at 500 ppm [9]: 80 to 100%

CCOc1ccc(C(CCCc2cccc(Oc3ccccc3)n2)C(F)(F)F)cc1 (stereo not shown) [Compound 98]
mortality at 500 ppm (Myzus persicae (aphids)): 80 to 100%
mortality at 500 ppm [1]: < 50%
mortality at 500 ppm [2]: 80 to 100%
pest or weed control at 500 ppm [3]: 80 to 100%
mortality at 500 ppm [4]: 80 to 100%
mortality at 500 ppm [5]: 80 to 100%
mortality at 500 ppm [6]: 80 to 100%
mortality at 500 ppm [7]: < 50%
mortality at 500 ppm [8]: 80 to 100%
mortality at 500 ppm [9]: 80 to 100%

CCOc1ccc(C(=CC=Cc2ccc(F)c(Cc3ccccc3)c2)C(F)(F)F)cc1 [Compound 107, 1,1,1-Trifluoro-2-(4-ethoxyphenyl)-5-(4-fluoro-3-benzylphenyl)penta-2,4-diene]
mortality at 500 ppm (Myzus persicae (aphids)): 80 to 100%
mortality at 500 ppm [1]: < 50%
mortality at 500 ppm [2]: < 50%
pest or weed control at 500 ppm [3]: < 50%
mortality at 500 ppm [4]: 80 to 100%
mortality at 500 ppm [5]: < 50%
mortality at 500 ppm [6]: 80 to 100%
mortality at 500 ppm [7]: 50 to 79%
mortality at 500 ppm [8]: < 50%
mortality at 500 ppm [9]: < 50%

Fc1ccc(C=CC=C(c2ccc(OC(F)(F)F)cc2)C(F)(F)F)cc1Cc1ccccc1 [Compound 105, 1,1,1-Trifluoro-2-(4-trifluoromethoxyphenyl)-5-(4-fluoro-3-benzylphenyl)penta-2,4-diene]
mortality at 500 ppm (Myzus persicae (aphids)): 80 to 100%
mortality at 500 ppm [1]: 80 to 100%
mortality at 500 ppm [2]: 80 to 100%
pest or weed control at 500 ppm [3]: < 50%
mortality at 500 ppm [4]: 80 to 100%
mortality at 500 ppm [5]: < 50%
mortality at 500 ppm [6]: 80 to 100%
mortality at 500 ppm [7]: 80 to 100%
mortality at 500 ppm [8]: 80 to 100%
mortality at 500 ppm [9]: < 50%

FC(F)(F)C(CCCc1cccc(Oc2ccccc2)c1)c1ccc2c(c1)OCO2 (stereo not shown) [Compound 40, 1,1,1-Trifluoro-2-(3,4-methylenedioxy)phenyl-5-(3-phenoxyphenyl)pentane]
mortality at 500 ppm (Myzus persicae (aphids)): 80 to 100%
mortality at 500 ppm [1]: < 50%
mortality at 500 ppm [2]: < 50%
pest or weed control at 500 ppm [3]: 80 to 100%
mortality at 500 ppm [4]: 80 to 100%
mortality at 500 ppm [5]: 80 to 100%
mortality at 500 ppm [6]: 80 to 100%
mortality at 500 ppm [7]: < 50%
mortality at 500 ppm [8]: 50 to 79%
mortality at 500 ppm [9]: 80 to 100%

FC(F)C(CCCc1cccc(Oc2ccccc2)c1)c1ccc(OC(F)(F)F)cc1 (racemic) [Compound 83, 1,1-Difluoro-2-(4-trifluoromethoxyphenyl)-5-(3-phenoxyphenyl)pentane]
mortality at 500 ppm (Myzus persicae (aphids)): 80 to 100%
mortality at 500 ppm [1]: 80 to 100%
mortality at 500 ppm [2]: 80 to 100%
pest or weed control at 500 ppm [3]: 80 to 100%
mortality at 500 ppm [4]: 80 to 100%
mortality at 500 ppm [5]: 80 to 100%
mortality at 500 ppm [6]: 80 to 100%
mortality at 500 ppm [7]: 80 to 100%
mortality at 500 ppm [8]: 80 to 100%
mortality at 500 ppm [9]: 80 to 100%
